US20100152239A1, “Method to Improve Survival in Sepsis” (priority 2008, published 2010)

Columns and labels:
hemorrhagic rats = experiment: Survival after severe hemorrhage and resuscitation; assay type: in vivo, rat; conditions: for animals with hemorrhagic shock protected: n=7/group
Procedure: Adult male Sprague-Dawley (350-450 g) rats were purchased from Harlen Sprague-Dawley (Indianapolis, Ind., USA) and allowed to acclimate for 7 days, housed at 25° C. on a 12-hr light/dark cycle. Animals were randomly grouped and assigned to a specific experiment. Investigators were blinded to the experimental treatment.
Animals were anaesthetized by inhalation of isoflurane (5% induction, 2% maintenance; Minrad, Buffalo, N.Y., USA) and subjected to surgical catheter placement into the femoral artery and vein under sterile conditions. To avoid blood clot and maintain catheter patency, the catheters were flushed with 1% heparin solution immediately before placement. Heparin was not used in vivo during the experiment or observation period in agreement with previous studies. After the catheter implantation, the blood pressure and the heart rate were recorded for 15 min. to establish a physiological baseline prior the hemorrhage procedure. Then, the animals were subjected to hemorrhage over 15 min. to reach a mean arterial blood pressure (MAP) of 35-40 mmHg and subsequent maintenance of this blood pressure by continued blood withdrawal for another 15 min. After the shock phase, resuscitated animals received specific resuscitation treatment over 40 min. with a total volume of 15 ml/kg (equivalent to 1000 ml of Hextend in a 70 kg person). The femoral artery was catheterized with a catheter R-FAC (Braintree Scientific, Inc., Braintree, Mass., USA) previously flushed with 1% heparin in 0.9% saline to allow spontaneous bleeding due to arterial blood pressure. Shed blood was considered lost and it was not reinfused. After resuscitation treatment, the animals were kept anesthetized for 2 hrs to record heart rate, blood pressure and blood chemistry. The control animals were also anesthetized with isoflurane for blood collection. Then, the anesthesia was stopped and the animals were allowed to recover from anesthesia and housed individually in regular cages. Splenectomy was performed as we described previously. Briefly, the spleen was identified following a midline laparotomy incision, and removed after appropriate blood vessel ligation. Sham animals underwent laparotomy without splenectomy.
All data in the figures and text are expressed as mean±standard deviation (SD). Statistical analyzes were performed using the one-way ANOVA with multiple pairwise comparisons with the Bonferroni's adjustment for multiple hypothesis testing. The Student's t-test was used to compare mean values between two experimental groups. Statistical analyzes of survival were determined using the logrank test. P-values<0.05 were considered statistically significant.
Adult male Sprague-Dawley hemorrhagic rats received no resuscitation (NR) or were resuscitated with 15 ml/kg (i.v.) Hextend (HEXT) or Hextend supplemented with GTS (GTS). (A) Arterial blood pressure was recorded during hemorrhage and the resuscitation treatment. (B) All animals without resuscitation treatment (NR; n=10) died within the first 5 hrs after hemorrhage with an average time of death of 161±26 min. Resuscitation with Hextend allowed the animals to restore normal blood pressure and tissue perfusion, and yet 90% of the animals died (n=9). […] P<0.05 survival logrank test versus NR (*) or HXT(#).

p65RelA NF-κB = p65RelA NF-κB binding to DNA in organs (TransAM DNA-Binding ELISA); assay type: in vivo, rat; conditions: nuclear extracts at 2 hrs after hemorrhage
Procedure: (§1) Homogenates were normalized by protein concentration and the activation of IκBα was analyzed by Western blot by using anti-IκBα polyclonal antibody ab7217 and anti-phosphorylated-IκBα(phospho S32+S36) monoclonal antibody [clone39A1431] ab12135 (Abcam; Cambridge, Mass., USA). Transcriptional activity of splenic p65RelA was analyzed by TransAM DNABinding ELISA (Active Motif; Cambridge, Mass., USA) following manufacturer's instructions. […] Protein levels were measured using the Bradford method (BIO-RAD) and PARP activity was normalized to protein content.

TNF [1] = experiment: TNF protein in splenectomized hemorrhagic animals after resuscitation; assay type: in vivo, rat; conditions: n=4/group
Procedure: (§2) Activation Blood was collected at 2 hrs after the hemorrhagic shock and analyzed using the i-Stat blood analyzer (Abbot Laboratories, IL, USA). Lung function was assessed by analyzing blood gases including total and partial carbon dioxide (TCO2, PCO2), bicarbonate (HCO3), pH and the base excess of extracellular fluid (BEecf). The organ function tests include […] sodium, potassium, chloride, the anion gap (AnGap), total plasma protein (TP), and blood urea nitrogen (BUN). Blood chemistry also included glucose, hematocrit and hemoglobin. The systemic inflammatory status was assessed by analyzing critical pro-inflammatory cytokines and cardiodepressant factors such as TNF and HMGB1. The major organs were collected and immediately sliced and washed with PBS at 4° C. TNF concentrations in serum and major organs were determined by ELISA (R&D Systems, Inc., Minneapolis, Minn., USA). HMGB1 was analyzed by Western blot as previously described.

mRNA TNF = experiment: TNF transcription in heart and spleen by real-time PCR; assay type: in vivo, rat; conditions: 2 hrs after hemorrhage; as compared with Hextend; n=4/group
Procedure: We analyzed mRNA TNF levels in the heart and the spleen by real-time PCR (FIG. 5, GTS inhibits TNF transcription in the spleen during resuscitation. Organs from control or hemorrhagic animals without or with resuscitation were analyzed at 2 hrs after hemorrhage. TNF transcription in the (A) heart and (B) spleen was analyzed by real-time PCR. * represents P<0.05 versus HXT (n=4/group; one-way ANOVA with Bonferroni's corrections)). Hemorrhage increased mRNA TNF levels in both the heart and the spleen as analyzed by real-time PCR. […] In order to determine whether the inhibition of splenic TNF is sufficient to account for the anti-inflammatory potential of GTS, we analyzed the pharmacological implications of the spleen during resuscitation.

[2] = Arterial blood pressure during hemorrhage and resuscitation; assay type: in vivo, rat; conditions: 15 ml/kg resuscitation fluid i.v.
Procedure: Animals were anaesthetized by inhalation of isoflurane (5% induction, 2% maintenance; Minrad, Buffalo, N.Y., USA) and subjected to surgical catheter placement into the femoral artery and vein under sterile conditions. To avoid blood clot and maintain catheter patency, the catheters were flushed with 1% heparin solution immediately before placement. […] After the catheter implantation, the blood pressure and the heart rate were recorded for 15 min. to establish a physiological baseline prior the hemorrhage procedure. Then, the animals were subjected to hemorrhage over 15 min. to reach a mean arterial blood pressure (MAP) of 35-40 mmHg and subsequent maintenance of this blood pressure by continued blood withdrawal for another 15 min. After the shock phase, resuscitated animals received specific resuscitation treatment over 40 min. with a total volume of 15 ml/kg (equivalent to 1000 ml of Hextend in a 70 kg person). The femoral artery was catheterized with a catheter R-FAC (Braintree Scientific, Inc., Braintree, Mass., USA) previously flushed with 1% heparin in 0.9% saline to allow spontaneous bleeding due to arterial blood pressure. Shed blood was considered lost and it was not reinfused. After resuscitation treatment, the animals were kept anesthetized for 2 hrs to record heart rate, blood pressure and blood chemistry. […]

HMGB1 = experiment: Serum HMGB1 by Western blot during resuscitation; assay type: in vivo, rat; conditions: 2 hrs after hemorrhage; n=4/group
Procedure: as §2

[3] = test system: poly(ADP-ribose) polymerase (PARP); experiment: PARP activity in organ homogenates; assay type: in vivo, rat; conditions: liver homogenates; n=4/group
Procedure: as §1

TNF [4] = experiment: TNF protein in serum and organs by ELISA during resuscitation; assay type: in vivo, rat; conditions: non-splenectomized animals; 2 hrs; n=4/group
Procedure: as §2

[5] = Blood chemistry during resuscitation (i-Stat); assay type: in vivo, rat; conditions: blood at 2 hrs after hemorrhage; n=4/group
Procedure: as §2

[6] = rats; cited from earlier work
[7] = mice; cited from earlier work
RelB NF-κB = RelB NF-κB binding to DNA in spleen (TransAM DNA-Binding ELISA); assay type: in vivo, rat; conditions: nuclear extracts at 2 hrs after hemorrhage
[8] = test system: RAW264.7 macrophage cells; conditions: via alpha7nAchR; cited from earlier work
macrophages = conditions: via alpha7nAChR; cited from earlier work
serum TNF and HMGB1 = conditions: cited from earlier work

## COc1ccc(/C=C2\CCCN=C2c2cccnc2)c(OC)c1 [GTS, 3-[(2,4-dimethoxy)benzylidene]-anabaseine]
Hemorrhagic rats; 0.02 mg/kg GTS in Hextend
  animals with hemorrhagic shock protected: 17%
Hemorrhagic rats; 0.2 mg/kg GTS
  protection as compared with Hextend solution alone (logrank): statistically significant protection
Hemorrhagic rats; 0.2 mg/kg GTS in Hextend
  animals with hemorrhagic shock protected: 67%
Hemorrhagic rats; 2 mg/kg GTS
  protection as compared with Hextend solution alone (logrank): statistically significant protection
Hemorrhagic rats; Hextend supplemented with 350 uM GTS, 15 ml/kg i.v., n=7, followed up to 7 days
  survival from lethal hemorrhage: rescued all the animals from lethal hemorrhage
p65RelA NF-κB
  p65RelA NF-κB activation in organs (heart, liver, spleen): inhibited p65RelA NF-κB in most of the organs but not in the heart
TNF [1]
  TNF levels in serum, lung and heart of splenectomized animals: significantly inhibited serum TNF levels as well as TNF levels in the lung and the heart
  systemic (serum) TNF levels in splenectomized animals: significantly inhibited systemic TNF levels
mRNA TNF
  mRNA TNF levels in heart and spleen: decreased mRNA TNF levels in the spleen but not in the heart
[2]
  blood pressure after resuscitation: re-established blood pressure
HMGB1
  serum HMGB1 levels: no serum HMGB1 was found
[3]
  hepatic PARP activity: inhibited PARP activation
TNF [4]
  TNF levels in organs (lung, liver, heart, spleen): blunted TNF levels in all of the organs
  serum (circulating) TNF levels: circulating TNF levels similar to those in control mice
[5]
  AnGap, bicarbonate and chloride: re-established normal values of AnGap and bicarbonate but not hypochloremia
  hyperglycemic response (glucose): significantly prevented
  metabolic acidosis (pH): prevented metabolic acidosis
  uremia (blood urea nitrogen): did not prevent uremia
[6]
  effect on dopamine turnover: no effect
[7]
  effect on locomotor activity: no effect
RelB NF-κB
  RelB NF-κB activation in spleen: not affected

## CN1CCCC1c1cccnc1 (stereo not drawn) [nicotine]
[8]
  endotoxin-induced p65NF-κB activation: inhibits endotoxininduced p65NF-κB activation
macrophages
  production of TNF and HMGB1 in macrophages: inhibits TNF and HMGB1 production
[7]
  effect on locomotor activity: biphasic effect
Serum TNF and HMGB1; experimental models of systemic inflammation
  survival: improves survival
Serum TNF and HMGB1; in vivo treatment, experimental models of systemic inflammation
  serum TNF and HMGB1 levels: inhibits serum TNF and HMGB1 levels
Serum TNF and HMGB1; previous studies
  systemic TNF levels in sham versus splenectomized animals: attenuated systemic TNF levels in sham but not in splenectomized animals
